Assay results reported in patent US20080004272A1, “Compositions and methods for modulating gated ion channels” (PainCeptor Pharma Corporation, priority 2006, published 2008).
pIC50: −log10 of the molar value.

Molecular target: T1, ASIC1a (Homo sapiens, UniProt P78348)
T1 sequence (P78348 1-528): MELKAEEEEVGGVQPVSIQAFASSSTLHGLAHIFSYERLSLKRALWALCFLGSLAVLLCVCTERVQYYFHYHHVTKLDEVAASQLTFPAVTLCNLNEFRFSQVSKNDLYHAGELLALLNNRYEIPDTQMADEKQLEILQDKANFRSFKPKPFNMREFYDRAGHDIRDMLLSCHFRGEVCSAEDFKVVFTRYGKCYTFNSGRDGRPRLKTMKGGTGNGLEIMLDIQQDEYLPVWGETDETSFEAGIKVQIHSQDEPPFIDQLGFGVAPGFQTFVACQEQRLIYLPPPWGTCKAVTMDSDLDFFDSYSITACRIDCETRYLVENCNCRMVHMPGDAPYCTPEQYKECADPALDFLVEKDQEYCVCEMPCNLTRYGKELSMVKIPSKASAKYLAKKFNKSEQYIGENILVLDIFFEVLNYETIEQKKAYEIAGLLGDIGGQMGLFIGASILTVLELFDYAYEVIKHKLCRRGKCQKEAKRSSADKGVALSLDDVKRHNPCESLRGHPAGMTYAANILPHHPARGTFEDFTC
Assay: Calcium imaging of MES-induced calcium response (FlexStation, "Flex")
Assay type: cell-based
Design: host or cells: HEK293
Conditions: ASIC1a expressing HEK293 cells; for inhibition at 40 µM: read-out: % inh. at 40 μM (Flex)
Method: ASIC1a expressing HEK293 cells are grown in culture medium (DMEM with 10% FBS), in polystyrene culture flasks ([…]) at 37° C. in a humidified atmosphere of 5% CO2. Confluency of cells should be 80-90% on day of plating. Cells are rinsed with 10 ml of PBS and cells are re-suspended by addition of culture medium and trituration with a 25 ml pipette.
The cells are seeded at a density of approximately 1×10^6 cells/ml (100 μl/well) in black-walled, clear bottom, 96-well plates pre-treated with 10 mg/l poly-D-lysin (75 μl/well for ≧30 min). Plated cells are allowed to proliferate for 24 h before loading with dye.
Fluo-4/AM (1 mg, Molecular Probes) is dissolved in 912 μl DMSO. The Fluo-4/AM stock solution (1 mM) is diluted with culture medium to a final concentration of 2 μM (loading solution).
The culture medium is aspirated from the wells, and 50 μl of the Fluo-4/AM loading solution is added to each well. The cells are incubated at 37° C. for 30 min.
After the loading period, the loading solution is aspirated and the cells are washed twice with 100 μl modified Assay Buffer (145 mM NaCl, 5 mM KCl, 5 mM CaCl2, 1 mM MgCl2, 10 mM HEPES, pH 7.4) to remove extracellular dye. Following the second wash, 100 μl modified Assay Buffer is added to each well and the fluorescence is measured in FLIPR™ or FlexStation™ (Molecular Devices, USA), or any other suitable equipment known to the skilled in the art.
The MES-induced peak calcium response, in the presence of test substance, is expressed relatively to the MES response alone. Test substances that block the MES-induced calcium response are re-tested in triplicates. Confirmed hits are picked for further characterization by performing full dose-response curves to determine potency of each hit compound as represented by the IC50 values (i.e., the concentration of the test substance which inhibits 50% of the MES-induced calcium response).

Compound | inhibition at 40 µM (40 μM) [%] | pIC50 | other results
CCN(CC)Cc1cc(-c2cc(F)ccc2OC)cc2c1NC(=O)/C2=N/O [Compound 183, 7-Diethylaminomethyl-5-(5-fluoro-2-methoxy-phenyl)-1H-indole-2,3-dione 3-oxime] | < 25 |  | 
COc1ccc(F)cc1-c1ccc(N)c(CO)c1 [Compound 186, (4-Amino-5′-fluoro-2′-methoxy-biphenyl-3-yl)-methanol] | < 25 |  | 
COc1ccc(F)cc1-c1ccc2c(c1)COC(=O)N2 [Compound 187, 6-(5-Fluoro-2-methoxy-phenyl)-1,4-dihydro-benzo[d][1,3]oxazin-2-one] | 25 to 45 |  | 
CCOC(=O)Nc1ccc(-c2cc(F)ccc2OC)cc1CN(CC)CC [Compound 212] | < 25 |  | 
CCN(CC)Cc1cc(-c2cc(F)ccc2OC)cc2c1NC(=O)/C2=N/O [Compound 213] |  |  | % inh. at 40 μM (Flex) (40 μM): <25% inhibition at 40 μM (Flex)
CCN(CC)Cc1cc(-c2cc(F)ccc2OC)ccc1NC(=O)N1CCOCC1 [Compound 214] | < 25 |  | 
CCN(CC)Cc1cc(-c2cc(F)ccc2OC)ccc1NC(=O)N(C)C [Compound 215] | < 25 |  | 
CCN1CCc2c(-c3ccccc3OC)cc3c(c2C1)NC(=O)/C3=N/O [Compound 220] |  | > 5.00 | 
CCOc1ccccc1-c1cc2c(c3c1CCN(CC)C3)NC(=O)/C2=N/O [Compound 221] |  | > 5.00 | 

Now from value to molecule, other results behind:

inhibition at 40 µM (40 μM) [%] | pIC50 | Compound | other results
 | > 5.00 | CCN1CCc2c(-c3cc(C)cc(C)c3)cc3c(c2C1)NC(=O)/C3=N/O [Compound 216] | 
> 50 |  | CCN1CCc2c(-c3cccc(C)c3C)cc3c(c2C1)NC(=O)/C3=N/O [Compound 217] | 
 | > 5.00 | CCN1CCc2c(-c3cc(C)ccc3C)cc3c(c2C1)NC(=O)/C3=N/O [Compound 218] | 
 | > 5.00 | CCN1CCc2c(-c3cc(Cl)ccc3OC)cc3c(c2C1)NC(=O)/C3=N/O [Compound 219] | 
